pIC50: −log10 of the molar value. Where two headings read alike, the source gives them in different places.
Tests used:
Experiment in all cases: biochemical
[1] = target: Ephrin type-A receptor 4 ; EPHA4 ; P54764 (Homo sapiens, UniProt P54764); set-up: species or system human cell line lysate
[2] = target: Dual specificity protein kinase CLK3 ; CLK3 ; P49761 (Homo sapiens, UniProt P49761); set-up: species or system human cell line lysate
[3] = target: T1, Interleukin-1 receptor-associated kinase 3 ; IRAK3 ; Q9Y616 (Homo sapiens, UniProt Q9Y616); set-up: species or system human cell line lysate
T1 sequence (Q9Y616 1-596): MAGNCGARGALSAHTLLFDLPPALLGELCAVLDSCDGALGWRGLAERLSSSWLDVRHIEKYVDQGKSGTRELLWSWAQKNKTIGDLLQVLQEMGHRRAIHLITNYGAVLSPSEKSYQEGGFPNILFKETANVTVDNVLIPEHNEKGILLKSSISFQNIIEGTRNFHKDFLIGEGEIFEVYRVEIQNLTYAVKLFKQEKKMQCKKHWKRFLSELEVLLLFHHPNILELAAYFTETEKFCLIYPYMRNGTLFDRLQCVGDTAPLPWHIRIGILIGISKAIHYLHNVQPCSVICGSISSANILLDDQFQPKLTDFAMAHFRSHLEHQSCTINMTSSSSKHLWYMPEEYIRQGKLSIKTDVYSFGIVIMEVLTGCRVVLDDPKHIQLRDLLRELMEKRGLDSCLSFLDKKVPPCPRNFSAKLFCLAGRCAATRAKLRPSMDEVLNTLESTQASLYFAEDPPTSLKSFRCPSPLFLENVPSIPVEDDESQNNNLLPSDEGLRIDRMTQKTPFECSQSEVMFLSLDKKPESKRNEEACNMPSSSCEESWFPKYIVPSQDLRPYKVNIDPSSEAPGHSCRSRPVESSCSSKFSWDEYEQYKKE

[4] = target: Non-receptor tyrosine-protein kinase TYK2 ; TYK2 ; P29597 (Homo sapiens, UniProt P29597); set-up: species or system human cell line lysate
[5] = target: Cyclin-dependent kinase 8 ; CDK8 ; P49336 (Homo sapiens, UniProt P49336); set-up: species or system human cell line lysate
[6] = target: Calcium/calmodulin-dependent protein kinase kinase 1 ; CAMKK1 ; Q8N5S9 (Homo sapiens, UniProt Q8N5S9); set-up: species or system human cell line lysate
[7] = target: T2, Cyclin-dependent kinase-like 5 ; CDKL5 ; O76039 (Homo sapiens, UniProt O76039); set-up: species or system human cell line lysate
T2 sequence (O76039 1-960): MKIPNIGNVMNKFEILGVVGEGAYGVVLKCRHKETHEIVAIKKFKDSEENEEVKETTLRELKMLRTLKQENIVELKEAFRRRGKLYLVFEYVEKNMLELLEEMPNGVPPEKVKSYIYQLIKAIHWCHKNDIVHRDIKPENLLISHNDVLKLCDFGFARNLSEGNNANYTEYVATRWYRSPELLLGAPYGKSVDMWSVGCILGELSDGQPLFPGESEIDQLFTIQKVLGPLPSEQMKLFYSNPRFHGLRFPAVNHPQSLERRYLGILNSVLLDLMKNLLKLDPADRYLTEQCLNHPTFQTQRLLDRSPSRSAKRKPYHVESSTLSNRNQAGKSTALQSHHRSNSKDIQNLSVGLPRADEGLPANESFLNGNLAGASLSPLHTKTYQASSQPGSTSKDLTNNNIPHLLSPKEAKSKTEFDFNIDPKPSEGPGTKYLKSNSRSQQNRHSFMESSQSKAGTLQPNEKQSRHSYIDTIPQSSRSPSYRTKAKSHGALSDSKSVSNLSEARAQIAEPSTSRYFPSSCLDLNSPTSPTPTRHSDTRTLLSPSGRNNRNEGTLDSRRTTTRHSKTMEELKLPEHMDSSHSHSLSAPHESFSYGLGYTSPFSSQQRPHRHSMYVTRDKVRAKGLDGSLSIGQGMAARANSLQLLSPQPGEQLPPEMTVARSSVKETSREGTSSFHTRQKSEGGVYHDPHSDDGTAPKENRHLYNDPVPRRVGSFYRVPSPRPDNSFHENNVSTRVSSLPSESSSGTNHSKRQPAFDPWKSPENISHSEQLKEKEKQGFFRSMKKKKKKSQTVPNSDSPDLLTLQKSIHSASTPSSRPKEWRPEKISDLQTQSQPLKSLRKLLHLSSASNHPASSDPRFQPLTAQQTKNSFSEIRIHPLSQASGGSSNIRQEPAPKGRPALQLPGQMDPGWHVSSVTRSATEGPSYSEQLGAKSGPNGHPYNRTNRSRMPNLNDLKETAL

[8] = target: Mast/stem cell growth factor receptor Kit ; KIT ; P10721 (Homo sapiens, UniProt P10721); set-up: species or system human cell line lysate
[9] = target: Cyclin-dependent kinase 13 ; CDK13 ; Q14004 (Homo sapiens, UniProt Q14004); set-up: species or system human cell line lysate
[10] = target: Cyclin-dependent kinase 4 ; CDK4 ; P11802 (Homo sapiens, UniProt P11802); set-up: species or system human cell line lysate
[11] = target: Cyclin-dependent kinase 19 ; CDK19 ; Q9BWU1 (Homo sapiens, UniProt Q9BWU1); set-up: species or system human cell line lysate
[12] = target: Cyclin-dependent kinase 6 ; CDK6 ; Q00534 (Homo sapiens, UniProt Q00534); set-up: species or system mixed lysate of K562, MV4-11, THP-1, NCI-H1155
[13] = read-out: BAY-1251152 (10 µM) / %Intensity relative to DMSO
[14] = read-out: BAY-1143572 (10 µM) / %Intensity relative to DMSO

Cyclin-dependent kinase 8 ; CDK8 ; P49336, sequence (P49336 whole entry, one chain of several): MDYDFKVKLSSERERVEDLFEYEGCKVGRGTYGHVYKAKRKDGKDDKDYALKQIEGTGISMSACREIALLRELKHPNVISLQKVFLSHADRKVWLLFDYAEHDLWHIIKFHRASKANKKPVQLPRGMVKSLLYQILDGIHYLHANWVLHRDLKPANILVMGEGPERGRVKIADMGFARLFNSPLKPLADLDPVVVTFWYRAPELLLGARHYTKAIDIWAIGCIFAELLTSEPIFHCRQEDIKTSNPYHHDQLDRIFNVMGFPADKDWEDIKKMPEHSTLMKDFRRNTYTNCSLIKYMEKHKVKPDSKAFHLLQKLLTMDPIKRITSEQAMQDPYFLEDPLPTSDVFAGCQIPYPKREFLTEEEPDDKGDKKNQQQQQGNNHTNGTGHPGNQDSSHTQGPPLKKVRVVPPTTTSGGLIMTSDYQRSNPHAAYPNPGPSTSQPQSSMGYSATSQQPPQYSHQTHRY
Ephrin type-A receptor 4 ; EPHA4 ; P54764, sequence (P54764 whole entry): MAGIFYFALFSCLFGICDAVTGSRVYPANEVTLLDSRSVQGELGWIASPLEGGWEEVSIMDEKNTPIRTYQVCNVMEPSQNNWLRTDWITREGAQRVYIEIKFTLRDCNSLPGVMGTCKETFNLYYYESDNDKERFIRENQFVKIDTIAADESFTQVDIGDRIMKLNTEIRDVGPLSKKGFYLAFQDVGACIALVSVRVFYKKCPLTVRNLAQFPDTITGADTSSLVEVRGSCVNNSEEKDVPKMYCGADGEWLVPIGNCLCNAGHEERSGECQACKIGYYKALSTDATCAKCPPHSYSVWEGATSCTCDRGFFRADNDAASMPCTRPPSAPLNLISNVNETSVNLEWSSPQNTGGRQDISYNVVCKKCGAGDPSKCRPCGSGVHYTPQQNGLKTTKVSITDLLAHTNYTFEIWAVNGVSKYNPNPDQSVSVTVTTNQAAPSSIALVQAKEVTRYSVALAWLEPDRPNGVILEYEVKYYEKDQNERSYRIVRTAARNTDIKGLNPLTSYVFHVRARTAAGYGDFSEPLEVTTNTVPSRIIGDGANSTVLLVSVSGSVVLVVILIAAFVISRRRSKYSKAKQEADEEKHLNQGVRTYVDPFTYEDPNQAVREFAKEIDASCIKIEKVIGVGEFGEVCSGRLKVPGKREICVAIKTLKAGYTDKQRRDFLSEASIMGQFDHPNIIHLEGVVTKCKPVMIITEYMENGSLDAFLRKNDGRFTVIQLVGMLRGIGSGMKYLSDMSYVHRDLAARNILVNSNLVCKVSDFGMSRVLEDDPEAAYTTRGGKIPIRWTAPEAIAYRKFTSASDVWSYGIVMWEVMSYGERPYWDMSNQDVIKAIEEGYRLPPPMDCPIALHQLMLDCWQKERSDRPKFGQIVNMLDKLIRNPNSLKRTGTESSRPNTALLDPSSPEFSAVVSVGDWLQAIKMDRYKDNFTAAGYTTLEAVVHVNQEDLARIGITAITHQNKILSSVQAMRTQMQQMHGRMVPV
Cyclin-dependent kinase 4 ; CDK4 ; P11802, sequence (P11802 whole entry, one chain of several): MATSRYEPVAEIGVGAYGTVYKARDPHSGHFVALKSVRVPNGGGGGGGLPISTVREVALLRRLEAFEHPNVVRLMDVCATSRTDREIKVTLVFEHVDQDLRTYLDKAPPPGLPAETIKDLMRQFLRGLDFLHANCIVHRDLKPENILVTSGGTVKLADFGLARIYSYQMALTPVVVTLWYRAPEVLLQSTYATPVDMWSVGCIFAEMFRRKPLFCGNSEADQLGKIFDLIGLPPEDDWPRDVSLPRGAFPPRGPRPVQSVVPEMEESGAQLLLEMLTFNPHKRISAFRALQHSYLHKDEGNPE
Cyclin-dependent kinase 13 ; CDK13 ; Q14004, sequence (Q14004 whole entry, one chain of several): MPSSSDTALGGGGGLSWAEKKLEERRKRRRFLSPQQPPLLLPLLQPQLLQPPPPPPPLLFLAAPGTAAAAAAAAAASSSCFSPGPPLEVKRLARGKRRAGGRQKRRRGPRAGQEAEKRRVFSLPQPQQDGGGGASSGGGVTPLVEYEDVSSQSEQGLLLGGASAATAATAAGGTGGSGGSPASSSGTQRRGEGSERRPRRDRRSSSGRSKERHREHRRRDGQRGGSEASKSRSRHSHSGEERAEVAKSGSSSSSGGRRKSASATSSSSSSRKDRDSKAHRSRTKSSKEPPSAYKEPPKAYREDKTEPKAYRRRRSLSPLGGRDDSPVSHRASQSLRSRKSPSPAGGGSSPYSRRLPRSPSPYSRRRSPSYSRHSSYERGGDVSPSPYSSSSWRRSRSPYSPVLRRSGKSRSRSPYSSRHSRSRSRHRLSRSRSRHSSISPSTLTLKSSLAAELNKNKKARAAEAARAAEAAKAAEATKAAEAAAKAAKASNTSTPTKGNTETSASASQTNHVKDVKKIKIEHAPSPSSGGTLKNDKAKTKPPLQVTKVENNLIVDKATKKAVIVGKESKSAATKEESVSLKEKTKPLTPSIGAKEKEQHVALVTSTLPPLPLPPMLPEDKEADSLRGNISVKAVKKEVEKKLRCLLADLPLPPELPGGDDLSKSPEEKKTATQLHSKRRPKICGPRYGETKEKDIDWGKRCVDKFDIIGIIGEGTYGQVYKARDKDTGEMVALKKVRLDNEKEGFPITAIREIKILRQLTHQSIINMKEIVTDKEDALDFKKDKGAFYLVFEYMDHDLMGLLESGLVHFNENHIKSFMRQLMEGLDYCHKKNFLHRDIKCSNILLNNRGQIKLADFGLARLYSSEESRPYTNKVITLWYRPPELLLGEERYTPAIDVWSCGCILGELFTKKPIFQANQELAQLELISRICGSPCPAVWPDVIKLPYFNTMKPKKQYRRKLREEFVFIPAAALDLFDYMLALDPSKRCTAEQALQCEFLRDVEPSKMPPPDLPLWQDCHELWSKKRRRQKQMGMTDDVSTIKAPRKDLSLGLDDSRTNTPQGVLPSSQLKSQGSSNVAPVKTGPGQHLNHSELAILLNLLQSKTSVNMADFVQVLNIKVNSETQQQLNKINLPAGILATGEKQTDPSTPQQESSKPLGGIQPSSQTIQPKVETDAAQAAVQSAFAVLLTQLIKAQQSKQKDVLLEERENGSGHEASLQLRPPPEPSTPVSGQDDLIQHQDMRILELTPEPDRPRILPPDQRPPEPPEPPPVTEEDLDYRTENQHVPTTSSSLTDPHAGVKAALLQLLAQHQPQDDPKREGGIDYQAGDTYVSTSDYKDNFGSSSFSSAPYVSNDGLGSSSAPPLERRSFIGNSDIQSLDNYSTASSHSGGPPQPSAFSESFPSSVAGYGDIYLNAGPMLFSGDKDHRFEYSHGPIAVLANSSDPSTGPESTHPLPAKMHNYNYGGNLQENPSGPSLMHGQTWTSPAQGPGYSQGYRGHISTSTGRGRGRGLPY
Mast/stem cell growth factor receptor Kit ; KIT ; P10721, sequence (P10721 whole entry, one chain of several): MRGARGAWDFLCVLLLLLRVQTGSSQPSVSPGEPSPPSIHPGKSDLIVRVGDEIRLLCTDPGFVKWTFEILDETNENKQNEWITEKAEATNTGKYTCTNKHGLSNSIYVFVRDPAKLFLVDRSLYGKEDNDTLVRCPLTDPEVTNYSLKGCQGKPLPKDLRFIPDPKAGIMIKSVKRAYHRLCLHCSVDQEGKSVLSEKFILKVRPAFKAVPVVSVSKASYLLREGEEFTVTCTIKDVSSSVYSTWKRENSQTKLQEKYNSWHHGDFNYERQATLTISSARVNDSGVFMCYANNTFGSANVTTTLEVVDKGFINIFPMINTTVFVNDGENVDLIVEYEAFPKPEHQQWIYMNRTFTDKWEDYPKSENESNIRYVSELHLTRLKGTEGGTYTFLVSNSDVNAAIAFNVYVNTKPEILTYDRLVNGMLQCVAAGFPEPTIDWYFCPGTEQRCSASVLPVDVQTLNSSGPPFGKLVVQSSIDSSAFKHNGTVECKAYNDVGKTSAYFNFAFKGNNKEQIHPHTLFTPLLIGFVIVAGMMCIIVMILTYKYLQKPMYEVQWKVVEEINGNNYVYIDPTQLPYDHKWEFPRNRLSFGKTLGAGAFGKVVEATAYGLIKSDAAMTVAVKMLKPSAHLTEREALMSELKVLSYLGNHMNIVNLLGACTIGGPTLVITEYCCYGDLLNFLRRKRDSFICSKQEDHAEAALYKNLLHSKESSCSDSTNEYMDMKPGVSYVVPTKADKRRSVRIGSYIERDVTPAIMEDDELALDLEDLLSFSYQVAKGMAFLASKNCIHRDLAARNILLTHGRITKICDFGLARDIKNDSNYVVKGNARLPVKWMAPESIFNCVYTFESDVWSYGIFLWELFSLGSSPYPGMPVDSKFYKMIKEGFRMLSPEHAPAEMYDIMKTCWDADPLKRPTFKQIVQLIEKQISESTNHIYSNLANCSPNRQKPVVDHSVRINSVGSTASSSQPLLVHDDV
Dual specificity protein kinase CLK3 ; CLK3 ; P49761, sequence (P49761 whole entry): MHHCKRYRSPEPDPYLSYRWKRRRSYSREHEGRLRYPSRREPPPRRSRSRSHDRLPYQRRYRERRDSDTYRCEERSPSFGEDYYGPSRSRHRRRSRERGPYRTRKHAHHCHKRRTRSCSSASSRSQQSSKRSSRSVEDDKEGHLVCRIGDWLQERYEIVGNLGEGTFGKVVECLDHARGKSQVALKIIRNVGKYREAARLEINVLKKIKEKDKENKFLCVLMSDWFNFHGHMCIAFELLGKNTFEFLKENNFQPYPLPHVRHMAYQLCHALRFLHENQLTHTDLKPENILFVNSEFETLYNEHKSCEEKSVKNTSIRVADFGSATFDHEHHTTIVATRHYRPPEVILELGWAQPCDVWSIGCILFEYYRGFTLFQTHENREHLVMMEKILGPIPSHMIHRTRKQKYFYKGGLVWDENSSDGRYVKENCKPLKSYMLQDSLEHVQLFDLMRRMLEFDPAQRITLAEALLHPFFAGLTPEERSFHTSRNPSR
Cyclin-dependent kinase 6 ; CDK6 ; Q00534, sequence (Q00534 whole entry, one chain of several): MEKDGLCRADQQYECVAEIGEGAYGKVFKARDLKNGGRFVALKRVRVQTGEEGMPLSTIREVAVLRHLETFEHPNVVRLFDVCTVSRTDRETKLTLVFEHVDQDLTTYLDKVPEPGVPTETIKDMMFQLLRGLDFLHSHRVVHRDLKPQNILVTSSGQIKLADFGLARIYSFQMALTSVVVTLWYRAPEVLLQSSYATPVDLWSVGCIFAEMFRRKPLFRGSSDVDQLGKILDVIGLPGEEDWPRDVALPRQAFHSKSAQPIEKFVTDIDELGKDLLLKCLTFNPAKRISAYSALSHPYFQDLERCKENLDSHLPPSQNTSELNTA

remaining activity at 10 µM [1, 13]	remaining activity at 10 µM [2, 13]	pIC50 [3]	pIC50 [4]	pIC50 [5]	pIC50 [6]	pIC50 [7]	pIC50 [8]	pIC50 [9]	pIC50 [10]	pIC50 [11]	remaining activity at 10 µM [12, 13]	remaining activity at 10 µM [1, 14]	remaining activity at 10 µM [2, 14]	remaining activity at 10 µM [12, 14]	SMILES
105%	115%	< 5.00	< 5.00	< 5.00	6.52	< 5.00	< 5.00	< 5.00	< 5.00	< 5.00	82.1%	–	–	–	COc1cc(F)ccc1-c1cc(Nc2cc(CS(C)(=N)=O)ccn2)ncc1F (stereo not drawn) [BAY-1251152]
–	–	5.53	5.52	< 5.00	6.42	5.47	6.19	< 5.00	< 5.00	< 5.00	–	91.7%	113%	94.2%	COc1cc(F)ccc1-c1ncnc(Nc2cccc(C[S@](C)(=N)=O)c2)n1 [BAY-1143572]
